Source: PubChem BioAssay AID602486 (The Scripps Research Institute Molecular Screening Center, 2012)
Activity calls are given as the source filed them. How the calls were made is not given here.

Target: 3C-like protease (3CLpro), SARS coronavirus (filed as Infectious bronchitis virus)
Assay: PubChem AID 602486
Settings: recombinant 3CLpro, fluorogenic peptide cleavage

SMILES: CC(=O)Nc1ccc(N(C(=O)Cn2cc(-c3ccccc3)nn2)C(C(=O)NC(C)(C)C)c2ccsc2)cc1 (stereo unspecified)
- IC50: inactive
